Results on 35 compounds are retold here after patent US9399626B2, “2-thiopyrimidinones” (Pfizer Inc., priority 2011, dated 2016).

Counter-ions that a name gives are not always drawn.

T1 sequence (P05164 279-745 limits assumed): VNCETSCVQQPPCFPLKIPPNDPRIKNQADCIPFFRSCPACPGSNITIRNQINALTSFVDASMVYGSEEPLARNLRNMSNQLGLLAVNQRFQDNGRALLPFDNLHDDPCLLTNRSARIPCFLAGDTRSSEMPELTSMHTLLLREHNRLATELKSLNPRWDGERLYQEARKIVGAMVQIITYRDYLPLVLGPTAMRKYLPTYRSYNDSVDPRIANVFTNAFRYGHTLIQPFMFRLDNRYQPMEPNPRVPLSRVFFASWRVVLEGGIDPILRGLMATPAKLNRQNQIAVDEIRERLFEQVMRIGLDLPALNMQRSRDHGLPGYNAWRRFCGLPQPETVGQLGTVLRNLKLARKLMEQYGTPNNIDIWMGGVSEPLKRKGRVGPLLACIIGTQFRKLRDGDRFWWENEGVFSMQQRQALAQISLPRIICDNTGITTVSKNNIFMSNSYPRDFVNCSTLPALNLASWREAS
T1 sequence (P05164 165-273 limits assumed): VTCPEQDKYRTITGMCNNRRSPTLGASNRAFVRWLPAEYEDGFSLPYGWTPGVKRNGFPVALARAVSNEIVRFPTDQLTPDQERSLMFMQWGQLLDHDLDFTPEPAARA

The first test concerns the target T1, MPO (purified from human polynuclear leukocytes) (Homo sapiens, UniProt P05164).
T1 construct: purified from human polynuclear leukocytes; purchased Calbiochem/EMD Biosciences; host or cells: human polynuclear leukocytes (natural source)
The test can be described thus: MPO Amplex Red Activity Assay. The format is biochemical. As to conditions: Table 1, 2 μM H2O2, pH 7.4. The method in brief: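 Potency is given as kinact/KI: kobs values from 600 s progress curves, minus the uninhibited rate, are fit against inhibitor concentration. Reactions use 2 μM H2O2, 30 μM Amplex Red, pH 7.4 phosphate buffer with NaCl, DTPA and 2% DMSO, started with […] human MPO. Readout is resorufin fluorescence, catalase background subtracted.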
In the case of `COc1ccccc1-c1cc(=O)[nH]c(=S)n1CCO` [Example 156, 1-(2-hydroxyethyl)-6-(2-methoxyphenyl)-2-thioxo-2,3-dihydropyrimidin-4(1H)-one], the “MPO kinact/Ki” value is listed as 16800 1/s per M. For `COCCn1c(-c2ccccc2-n2nccn2)cc(=O)[nH]c1=S` [Example 101, 1-(2-methoxyethyl)-2-thioxo-6-[2-(2H-1,2,3-triazol-2-yl)phenyl]-2,3-dihydropyrimidin-4(1H)-one], the “MPO kinact/Ki” value was 4140 1/s per M. Consider `COc1ccc(-c2cc(=O)[nH]c(=S)n2C[C@H]2CCCO2)c(OC)c1` [Example 214, 6-(2,4-dimethoxyphenyl)-1-[(2R)-tetrahydrofuran-2-ylmethyl]-2-thioxo-2,3-dihydropyrimidin-4(1H)-one], for which the “MPO kinact/Ki” value is 10700 1/s per M. With `COCCn1c(-c2cc(F)ccc2OC(F)(F)F)cc(=O)[nH]c1=S` [Example 346], the “MPO kinact/Ki” value is given as 5890 1/s per M. Same read-out and setting: with `O=c1cc(-c2cccc3ncsc23)n(CCO)c(=S)[nH]1` [Example 42, 6-(1,3-benzothiazol-7-yl)-1-(2-hydroxyethyl)-2-thioxo-2,3-dihydropyrimidin-4(1H)-one] the figure was 6070 1/s per M; with `COCCn1c(-c2cccc(OC)c2OC)cc(=O)[nH]c1=S` [Example 329, 6-(2,3-dimethoxyphenyl)-1-(2-methoxyethyl)-2-thioxo-2,3-dihydropyrimidin-4(1H)-one], 963 1/s per M. `COc1ccc(C#N)cc1-c1cc(=O)[nH]c(=S)n1CCO` [Example 163, 3-[3-(2-hydroxyethyl)-6-oxo-2-thioxo-1,2,3,6-tetrahydropyrimidin-4-yl]-4-methoxybenzonitrile]: the “MPO kinact/Ki” value was 8090 1/s per M. Same read-out and setting: then `COc1ccc(-c2cc(=O)[nH]c(=S)n2CC(C)(C)CO)c(OC)c1` [Example 224, 6-(2,4-dimethoxyphenyl)-1-(3-hydroxy-2,2-dimethylpropyl)-2-thioxo-2,3-dihydropyrimidin-4(1H)-one], with 3280 1/s per M; and `COCCn1c(-c2ccc(OC)cc2Cl)cc(=O)[nH]c1=S` [Example 334, 6-(2-chloro-4-methoxyphenyl)-1-(2-methoxyethyl)-2-thioxo-2,3-dihydropyrimidin-4(1H)-one], with 6840 1/s per M.

In the case of `COc1ccc(C)cc1-c1cc(=O)[nH]c(=S)n1CCN` [Example 159, 1-(2-aminoethyl)-6-(2-methoxy-5-methylphenyl)-2-thioxo-2,3-dihydropyrimidin-4(1H)-one hydrochloride], the “MPO kinact/Ki” value is 11400 1/s per M. Still for that read-out and setting: then `COCCn1c(-c2ccccc2F)cc(=O)[nH]c1=S` [Example 158, 6-(2-fluorophenyl)-1-(2-methoxyethyl)-2-thioxo-2,3-dihydropyrimidin-4(1H)-one], with 1750 1/s per M. Take `COc1cc(OC)c(-c2cc(=O)[nH]c(=S)n2CCN)cc1OC` [Example 198, 1-(2-aminoethyl)-2-thioxo-6-(2,4,5-trimethoxyphenyl)-2,3-dihydropyrimidin-4(1H)-one hydrochloride]: the “MPO kinact/Ki” value is on record as 8460 1/s per M. Same read-out and setting: with `COc1ccc(-c2cc(=O)[nH]c(=S)n2CCS(N)(=O)=O)c(OC)c1` [Example 248, 2-[6-(2,4-dimethoxyphenyl)-4-oxo-2-thioxo-3,4-dihydropyrimidin-1(2H)-yl]ethanesulfonamide] the figure was 3590 1/s per M; with `COc1ccc(C)cc1-c1cc(=O)[nH]c(=S)n1CC(N)=O` [Example 164, 2-[6-(2-methoxy-5-methylphenyl)-4-oxo-2-thioxo-3,4-dihydropyrimidin-1(2H)-yl]acetamide], 14900 1/s per M.

Turning to `COCCn1c(-c2cc3ccccc3o2)cc(=O)[nH]c1=S` [Example 306, 6-(1-benzofuran-2-yl)-1-(2-methoxyethyl)-2-thioxo-2,3-dihydropyrimidin-4(1H)-one], the “MPO kinact/Ki” value is 6740 1/s per M. Consider `O=c1cc(-c2csc3ccccc23)n(CCO)c(=S)[nH]1` [Example 39, 6-(1-benzothien-3-yl)-1-(2-hydroxyethyl)-2-thioxo-2,3-dihydropyrimidin-4(1H)-one], for which the “MPO kinact/Ki” value was 4520 1/s per M. Regarding `COc1cc(OC)cc(-c2cc(=O)[nH]c(=S)n2CCN)c1` [Example 48, 1-(2-aminoethyl)-6-(3,5-dimethoxyphenyl)-2-thioxo-2,3-dihydropyrimidin-4(1H)-one hydrochloride], the “MPO kinact/Ki” value was 6570 1/s per M. Turning to `COc1ccc(-c2cc(=O)[nH]c(=S)n2C[C@@H]2CCCN2)c(OC)c1` [Example 268, 6-(2,4-dimethoxyphenyl)-1-[(2S)-pyrrolidin-2-ylmethyl]-2-thioxo-2,3-dihydropyrimidin-4(1H)-one hydrochloride hydrochloride hydrochloride, hydrochloride hydrochloride …], the “MPO kinact/Ki” value was 6640 1/s per M. On the same count and under the same terms, with `NCCn1c(-c2ccccc2-n2nccn2)cc(=O)[nH]c1=S` [Example 144, 1-(2-aminoethyl)-2-thioxo-6-[2-(2H-1,2,3-triazol-2-yl)phenyl]-2,3-dihydropyrimidin-4(1H)-one hydrochloride] the figure was 6010 1/s per M. Same read-out and setting: with `COc1ccc(-c2cc(=O)[nH]c(=S)n2CCCN=C(N)N)c(OC)c1` [Example 270, 2-{3-[6-(2,4-dimethoxyphenyl)-4-oxo-2-thioxo-3,4-dihydropyrimidin-1(2H)-yl]propyl}guanidine trifluoroacetate] the figure was 20500 1/s per M. On the same count and under the same terms, then `COc1cccc(-c2cc(=O)[nH]c(=S)n2CCO)c1` [Example 155, 1-(2-hydroxyethyl)-6-(3-methoxyphenyl)-2-thioxo-2,3-dihydropyrimidin-4(1H)-one], with 8090 1/s per M; and `COc1ccc(Cl)cc1-c1cc(=O)[nH]c(=S)n1CCCNC(=O)CN` [Example 149, N-{3-[6-(5-chloro-2-methoxyphenyl)-4-oxo-2-thioxo-3,4-dihydropyrimidin-1(2H)-yl]propyl} glycinamide hydrochloride], with 9770 1/s per M. As for `COc1cc(OC)c(-c2cc(=O)[nH]c(=S)n2CCN)cc1C` [Example 81, 1-(2-aminoethyl)-6-(2,4-dimethoxy-5-methylphenyl)-2-thioxo-2,3-dihydropyrimidin-4(1H)-one hydrochloride], the “MPO kinact/Ki” value is reported as 24300 1/s per M.

With `COCCn1c(-c2cc(C)cnc2OC)cc(=O)[nH]c1=S` [Example 51, 1-(2-methoxyethyl)-6-(2-methoxy-5-methylpyridin-3-yl)-2-thioxo-2,3-dihydropyrimidin-4(1H)-one], the “MPO kinact/Ki” value is recorded as 6180 1/s per M.

As for `O=c1cc(-c2cccc3c2OCC3)n(CCO)c(=S)[nH]1` [Example 16, 6-(2,3-dihydro-1-benzofuran-7-yl)-1-(2-hydroxyethyl)-2-thioxo-2,3-dihydropyrimidin-4(1H)-one], the “MPO kinact/Ki” value is recorded as 6510 1/s per M. Still for that read-out and setting: then `COc1ccc(-c2cc(=O)[nH]c(=S)n2Cc2cnc(C)cn2)c(OC)c1` [Example 247, 6-(2,4-dimethoxyphenyl)-1-[(5-methylpyrazin-2-yl)methyl]-2-thioxo-2,3-dihydropyrimidin-4(1H)-one], with 3060 1/s per M; and `CNCCCn1c(-c2ccc(OC)cc2OC)cc(=O)[nH]c1=S` [Example 192, 6-(2,4-dimethoxyphenyl)-1-[3-(methylamino)propyl]-2-thioxo-2,3-dihydropyrimidin-4(1H)-one hydrochloride], with 10800 1/s per M.

The same test, now with this note: Table 1A, 2 μM H2O2, pH 7.4.
On to `O=c1cc(-c2cc(F)ccc2OCCO)n(CCO)c(=S)[nH]1` [Example 411, 6-[5-fluoro-2-(2-hydroxyethoxy)phenyl]-1-(2-hydroxyethyl)-2-thioxo-2,3-dihydropyrimidin-4(1H)-one], for which the “MPO kinact/Ki” value is reported as 15000 1/s per M. Same read-out and setting: with `CNCCCn1c(-c2cc(F)ccc2OC)cc(=O)[nH]c1=S` [Example 374, 6-(5-fluoro-2-methoxyphenyl)-1-[3-(methylamino)propyl]-2-thioxo-2,3-dihydropyrimidin-4(1H)-one] the figure was 4600 1/s per M. For `N=C(N)NCCCn1c(-c2cc(F)ccc2OCCO)cc(=O)[nH]c1=S` [Example 407, 1-(3-{6-[5-fluoro-2-(2-hydroxyethoxy)phenyl]-4-oxo-2-thioxo-3,4-dihydropyrimidin-1(2H)-yl}propyl)guanidine], the “MPO kinact/Ki” value is on record as 18700 1/s per M.

For `COc1ccc(-c2cc(=O)[nH]c(=S)n2CCCNC(=N)N)c(OCCO)c1` [Example 403, 1-(3-{6-[2-(2-hydroxyethoxy)-4-methoxyphenyl]-4-oxo-2-thioxo-3,4-dihydropyrimidin-1(2H)-yl}propyl)guanidine], the “MPO kinact/Ki” value is 13300 1/s per M. Take `COc1ccc(Cl)cc1-c1cc(=O)[nH]c(=S)n1CC(=O)NCCN` [Example 369, N-(2-aminoethyl)-2-[6-(5-chloro-2-methoxyphenyl)-4-oxo-2-thioxo-3,4-dihydropyrimidin-1(2H)-yl]acetamide]: the “MPO kinact/Ki” value is given as 8040 1/s per M.

As for `NCCNC(=O)Cn1c(-c2ccccc2OCCO)cc(=O)[nH]c1=S` [Example 428, N-(2-aminoethyl)-2-{6-[2-(2-hydroxyethoxy)phenyl]-4-oxo-2-thioxo-3,4-dihydropyrimidin-1(2H)-yl}acetamide], the “MPO kinact/Ki” value is listed as 5890 1/s per M. The same measure, in the same setting: then `COc1ccc(Cl)cc1-c1cc(=O)[nH]c(=S)n1C[C@H](C)N` [Example 361, 1-[(2S)-2-aminopropyl]-6-(5-chloro-2-methoxyphenyl)-2-thioxo-2,3-dihydropyrimidin-4(1H)-one], with 2060 1/s per M. Consider `COc1ccc(-c2cc(=O)[nH]c(=S)n2CC(=O)N[C@H]2CCNC2)c(OC)c1` [Example 393, 2-[6-(2,4-dimethoxyphenyl)-4-oxo-2-thioxo-3,4-dihydropyrimidin-1(2H)-yl]-N-[(3S)-pyrrolidin-3-yl]acetamide], for which the “MPO kinact/Ki” value is 13600 1/s per M.
